Laboratory results taken from patent US10131639B2, “Formulations of 2-(tert-butylamino)-4-((1R,3R,4R)-3-hydroxy-4methylcyclohexylamino)-pyrimidine-5-carboxamide” (Signal Pharmaceuticals, LLC, priority 2014, dated 2018).

Columns and labels:
[1] = Solid state physical stability under stress conditions (XRPD); assay type: physicochemical; settings: XRPD vs initial material
Method: A portion of the sample was loaded to a 4 mL clear glass vial. Four samples were prepared for each salt. The vials (open) were stored under 4 different stress conditions, respectively.

[2] = Earlier human experience with Compound 1 (doses up to 480 mg QD×14 days); assay type: in vivo; settings: healthy subjects
[3] = Phase 1 study: safety and tolerability in healthy subjects; assay type: in vivo, human
Text: Safety will be monitored throughout the study. Safety evaluations will include adverse event (AE) reporting, PEs, vital signs, 12-lead ECGs, clinical laboratory safety tests (including liver function tests (LFTs), total cholesterol, triglycerides, high-density lipoprotein (HDL), and low-density lipoprotein (LDL)) in addition to standard clinical chemistry, hematology, and urinalysis tests), review of concomitant medications/procedures, evaluation of wound healing, and pregnancy tests for female subjects.
All AEs will be monitored and recorded throughout the study from the time the informed consent form (ICF) is signed until study completion, and when made known to the Investigator within 28 days after the last dose of Compound 1 (and those serious adverse events (SAEs) made known to the Investigator at any time thereafter that are suspected of being related to IP). All concomitant medications and procedures will be reviewed and recorded from the time the subject signs the ICF until study completion. A follow-up visit (Part 1) or a follow-up phone call (Part 2) will be scheduled for all subjects. If a subject is discontinued from the study for any reason, an ET visit will be performed.
Part 1: To evaluate the safety of single and multiple oral doses of Compound 1; and Part 2: To evaluate the safety and tolerability of the formulated Compound 1 tablets when administered with food.

[4] = in vivo; settings: rat
Text: Based upon available human PK and preclinical pharmacology data, the doses were anticipated to provide a range of PD effects including both minimum and maximum JNK inhibition.

[5] = Solid state chemical stability under stress conditions (HPLC with UV detection); settings: for Chemical stability (open vial, 2 weeks): HPLC/UV
Method: Six vials were prepared for each salt. Two samples were stored in the refrigerator. The other four samples in open vials were stored under 4 stress conditions, respectively. […] One set of samples stored in the refrigerator were used to prepare the stock and standard solutions.

[6] = system: UVB-induced phospho c-jun expression in skin; test: Phospho c-Jun immunohistochemistry of UVB-irradiated skin biopsies: histopathology scores (scale 0-4); assay type: in vivo, human
Text: (§1) On baseline (Day −1) and on the sixth day of each dosing period (Days 6, 12, and 18), the skin test sites were delineated on the subject's upper buttock between the beltline and the natal cleft on the right side. The right side of the buttock was divided into four different test sites, one site for 2×MED irradiation at baseline and each of the three dosing periods. Each test site was a minimum of 3 cm×3 cm. Subjects received 2×MED UV irradiation at baseline (Day −1) at approximately the same time that irradiation was scheduled on Days 6, 12, and 18, which was 2 hours postdose. Eight hours after UV irradiation (±10 minutes), a skin punch biopsy was taken from the UV exposure site. The biopsies were processed into tissue slides by a third party and analyzed by immunohistochemistry (IHC). This third party was blinded to the treatment periods (baseline and doses).
(§2) Phospho-c-Jun expression in biopsies was analyzed by IHC. Phospho-c-Jun IHC data were subjectively scored on a scale of 0 to 4 based on the intensity and number of epidermal keratinocyte nuclei stained within the tissue section by trained individuals blinded to treatment. The IHC was also analyzed by automated measurement of integrated optical density.
Phospho c-Jun immunohistochemistry (IHC) images were scored by 2 independent pathologists from Quintiles using a scoring scale of 0-4. The percentage of epithelial c-Jun positive nuclei was scored as follows: […]

[7] = Hygroscopicity by dynamic vapor sorption (DVS); assay type: physicochemical
Text: DVS: A portion of the sample was loaded into a quartz sample holder and tested using DVS-Advantage system in two continuous adsorption/desorption cycles. The settings are described as follows:
Adsorption/desorption cycle 1: 50 to 95 to 0% RH;
Adsorption/desorption cycle 2: 0 to 95 to 0% RH;

[8] = system: UVB-induced phospho c-jun expression in skin; test: Phospho c-Jun immunohistochemistry of UVB-irradiated skin biopsies: quantitative analysis (integrated optical density); assay type: in vivo, human
Text: A total of four skin biopsies were taken, one at baseline and one each on the sixth day of each treatment period.
as §1, §2
Phospho c-Jun IHC images were analyzed at Quintiles for integrated optical density of positive nuclear staining using Aperio imaging software (Leica Biosystems). The Phospho c-jun score (Optical Density Scale) reflects the percentage of nuclei with ‘3+’ staining intensity (the cutoff for determining positive staining) as determined by the Aperio nuclear phospho c-jun quantitative image analysis algorithm.

[9] = in vivo; settings: dog

Compound: C[C@@H]1CC[C@@H](Nc2nc(NC(C)(C)C)ncc2C(N)=O)C[C@H]1O [Compound 1, 2-(tert-butylamino)-4-((1R,3R,4R)-3-hydroxy-4-methylcyclohexylamino)-pyrimidine-5-carboxamide]
- Physical stability (open vial, 2 weeks) ([1]; 80° C./75% RH, listed as Compound 1 (free base)): physically stable
- Physical stability (open vial, 2 weeks) ([1]; 80° C./75% RH, listed as Free base): no change
- Physical stability (open vial, 2 weeks) ([1]; 80° C., listed as Compound 1 (free base)): physically stable
- Physical stability (open vial, 2 weeks) ([1]; 80° C., listed as Free base): no change
- tolerability [2]: well tolerated
- subjects reporting TEAEs ([3]; 11 of 28 subjects, 17 TEAEs, Parts 1 and 2 overall): 39.3%
- clinical laboratory evaluations, vital sign measurements, ECGs ([3]; Parts 1 and 2): No clinically significant changes or findings
- subjects with an SAE or severe TEAE ([3]; Parts 1 and 2 overall, 28 subjects): No subjects
- safety and tolerability ([3]; multiple doses 60, 160 and 400 mg AIC QD for 6 days): safe and well tolerated
- diarrhea suspected of being related to Compound 1 ([3]; of 28 subjects): 2 subjects
- nausea suspected of being related to Compound 1 ([3]; of 28 subjects): 4 subjects
- safety and tolerability ([3]; single doses of 200 mg as formulated tablets (fed and fasted) and AIC (fasted)): safe and well tolerated
- AUC [4]: 23400 ng·h/mL
- Chemical stability (open vial, 2 weeks) ([5]; 80° C./75% RH): no change
- Chemical stability (open vial, 2 weeks) ([5]; 80° C.): no change
- % Remaining at 80° C. ([5]; solid state, open vial, 80° C., 2 weeks, HPLC with UV detection): 101.8%
- % Remaining at 80° C./75% RH ([5]; solid state, open vial, 80° C./75% RH, 2 weeks, HPLC with UV detection): 100.8%
- percentage of individuals showing either no change or a decrease in histopathology score ([6]; 60 mg dose group (8/15)): 53%
- percentage of individuals showing either no change or a decrease in histopathology score ([6]; 160 mg dose group (10/14)): 71%
- percentage of individuals showing either no change or a decrease in histopathology score ([6]; 400 mg dose group (11/14)): 79%
- change from baseline in median histopathology scores ([6]; 60, 160, 400 mg QD×6 days, scale 0-4, 2 independent pathologists): not significantly affected
- Hygroscopicity (80% RH, 25° C., cycle 1 sorption) ([7]; DVS water uptake, L-tartrate: hydrate, difference between 20% RH and 80% RH): 0.17%
- hygroscopicity (sorption/desorption, in words) ([7]; DVS, 25° C.): not hygroscopic
- change from baseline in phospho c-jun staining (integrated optical density) ([8]; 60 mg QD×6 days, biopsy 8 hours after 2×MED UVB): not decreased
- percentage of subjects with a decrease in optical density score compared to baseline ([8]; 60 mg dose (4/14)): 29%
- decrease from baseline in phospho c-jun staining (integrated optical density) ([8]; 160 mg QD×6 days, biopsy 8 hours after 2×MED UVB, p=0.18): 7.5%
- percentage of subjects with a decrease in optical density score compared to baseline ([8]; 160 mg dose (11/13)): 85%
- decrease from baseline in phospho c-jun staining (integrated optical density) ([8]; 400 mg QD×6 days, biopsy 8 hours after 2×MED UVB, p<0.0001): 29.5%
- percentage of subjects with a decrease in optical density score compared to baseline ([8]; 400 mg dose (13/13)): 100%
- inhibition of UVB-induced phospho c-jun expression in skin ([8]; 60, 160, 400 mg QD×6 days, automated quantitative image analysis): dose-dependent manner
- AUC at 28 days [9]: 81200 ng·h/mL
